Experimental data published in publication PMC4721142, “Randomized controlled studies on the efficacy of antiarthritic agents in inhibiting cartilage degeneration and pain associated with progression of osteoarthritis in the rat” (Arthritis Research & Therapy, 2016).
“And” between values parts separate entries of the source, which are not always exact repeats. Identical values can stand only once.

How the values were obtained:
Assay type in all cases: in vivo
MMT/MCLT rat model of OA = experiment: MMT/MCLT trial 2 histopathology (same doses); set-up: key to Total joint score w/o femur / Total joint score: sum: cartilage degeneration scores + mean osteophyte score; settings: for Femoral cartilage degeneration score / Total joint score: mean
From the text: For MMT/MCLT rat knee joints, sections were cut in 200-μm steps; stained with toluidine blue (also with a right and left half per section); and similarly analyzed for cartilage degeneration, proteoglycan loss, collagen damage, and osteophyte formation. Results were averaged across the three sections for an overall semiquantitative score. Regional differences across the tibial plateau were taken into consideration by dividing each section into three zones delineated using an ocular micrometer (outside, middle, and inside). Scores were based on the percentage of area affected within the zone.
Cartilage degeneration in the tibia was scored on a 5-point scale as detailed in the Methods section of Additional file 1. The total extent of degeneration of the tibial plateau was measured (in micrometers) and included an analysis of cell loss, proteoglycan loss, and collagen damage. Significant cartilage degeneration reflecting any degeneration extending through more than 50 % of the cartilage thickness was also measured. Collagen damage across the medial tibial plateau (the most severely affected section of the two halves) was also quantified.
Osteophytes and femoral cartilage degeneration were analyzed as detailed in Additional file 1. Scoring of the osteophytes and categorization into small, medium, and large was performed using an ocular micrometer. The actual osteophyte measurement (tidemark to farthest distance point extending toward the synovium) was also recorded. The femoral cartilage degeneration score and the three-zone sum of the tibial cartilage degeneration scores (mean of three levels) were summed to create a total cartilage degeneration score. The mean osteophyte score for each joint was added to this value to create a total joint score. […]
Histopathology MMT/MCLT Model

MIA rat model of OA [1] = experiment: MIA trial 3 histopathology (same doses as dRS test); set-up: key to Cartilage matrix damage score: 5-point cartilage matrix score; key to Mean of all cartilage loss: approximate % loss, mean of four articular surfaces; Subchondral bone sclerosis: scale not given here; settings: group mean
From the text: For MIA trial 3, joints were fixed and toluidine blue–stained sections of the rat knees were comprehensively analyzed from test and control subjects as detailed in Additional file 1. Briefly, a 5-point cartilage matrix score was derived based upon (1) approximate percentage of total loss of articular chondrocytes for each of four articular surfaces, (2) estimated proteoglycan loss (via Safranin O staining), and (3) loss of interstitial matrix. Chondrocyte necrosis and proteolytic degeneration of the femurs were scored on a 5-point scale as in trial 1. A femoral cartilage degeneration score and a three-zone sum of the tibial cartilage degeneration scores (mean of three levels) were also summed to create a total cartilage degeneration score. The mean osteophyte score for each joint was added to this value to create a total joint score with matrix. Other parameters assessed included synovial membrane inflammation and proliferation. Representative images from each group were also collected (see, e.g., Fig. 4 and Additional file 1: Fig. S55, Trial 3). […]
Hawes, APS, Pathologist). Treatments were masked during the assessment. Chondrocyte necrosis and proteolytic degeneration of the femurs were scored on a 5 point scale with 0 = None; 1 = <10%; […]
For the histopathology of the MIA model in Trial 3, completed by Bolder BioPATH (and Dr.
Bendele), a tolouidine blue stained slide containing both halves of the joint was comprehensively analyzed from test and control subjects. Approximate % of total loss of articular chondrocytes, loss of proteoglycan and loss of collagenous matrix were determined for each articular surface (medial tibial plateau (MTP), lateral tibial plateau (LTP), medial femoral condyle (MFC), and lateral femoral condyle (LFC). Chondrocyte loss was quantified by estimating the area of cartilage in which there were no apparently viable chondrocytes and proteoglycan loss was quantified by estimating differences in intensity of toluidine blue matrix staining. Loss of interstitial matrix was an indication of disruption and diminished type II collagen. Based on the mean % loss for the four surfaces in these parameters, a five point matrix score was utilized with the subchondral bone resorption, subchondral bone sclerosis and osteophyte scores to achieve a total joint score. […]
[…] steps, stained with toluidine blue (with a right and left halve per section), and analyzed for cartilage degeneration, proteoglycan loss, collagen damage, and osteophyte formation. Results were averaged across the 3 sections for an overall semi-quantitative score. Regional differences across the tibial plateau were taken into consideration by dividing each section into 3 zones delineated using an ocular micrometer (outside, middle, and inside). Scores were based on the percentage of area affected within the zone.
Cartilage degeneration in the tibia was scored on a five point scale for each zone, collagen damage across the medial tibial plateau was measured by total width for each grade damage. Cartilage degeneration in the tibia was scored none to severe (numerical values 0-5) for each zone (area defined by micrometer) using the following criteria: […]

MIA rat model of OA [2] = experiment: MIA trial 2 digital Randall-Selitto test (daily tacrolimus 0.3 or 0.6 mg/kg i.p., curcumin 50 mg/kg p.o., fluocinolone 0.01 mg/kg s.c.; weekly clonidine 0.1 mg/kg s.c.); settings: tacrolimus 0.3 mg/kg, other drugs single dose
Method: The digital Randall-Selitto (dRS) test is said to be a reliable and repeatable measure of neuropathic, bone, and inflammatory pain behavior in several different models, including those of arthritic or joint pain [29, 31, 32]. Baseline and posttreatment values were evaluated using a dRS test device (IITC Life Science, Woodland Hills, CA, USA). Animals were allowed to acclimate to the testing room before all experimentation and for a minimum of 30 minutes before testing. To ensure that their hind limbs were accessible, the animals were gently suspended in a restraint sling. The joint compression threshold was measured once at each time point for the ipsilateral and contralateral knee joints. Pressure was applied gradually over approximately 10 seconds to the medial and lateral aspects of the knee joint. Measurements were taken from the first observed behavior of vocalization, struggle, or withdrawal. A cutoff value of 600 g was used to prevent injury to the animal.
Following isoflurane anesthesia, 50 μl (2 mg) of MIA was injected into the synovial space of the left knee. Animals were randomly assigned to groups, and pain behavior was assessed 7, 14, 21, and 28 days following MIA injection and intervention using WB with the Stoelting incapacitance meter (trial 1) or the dRS test (trials 2 and 3). […] Animals received MIA treatment and then saline control or therapeutic. […] Histopathology was performed at each time point and at study termination. All studies were conducted in accordance with the International Association for the Study of Pain Guidelines and were approved by the Algos Therapeutics, Inc. Institutional Animal Care and Use Committee (IACUC) before initiation. Those running the studies were blind to the treatments. See Additional file 1 for further details.

[3] = tacrolimus 30 ng i.a., clonidine 100 μg/kg s.c.

Structure (SMILES)	Femoral cartilage degeneration score (MMT/MCLT rat model of OA; i.a., tacrolimus 15 ng)	Total joint score (MMT/MCLT rat model of OA; i.a., tacrolimus 15 ng)	Bone resorption percent, LFC (MIA rat model of OA [1]; i.a. weekly) [%]	Bone resorption percent, LTP (MIA rat model of OA [1]; i.a. weekly) [%]	Bone resorption percent, MFC (MIA rat model of OA [1]; i.a. weekly) [%]	Bone resorption percent, MTP (MIA rat model of OA [1]; i.a. weekly) [%]	Bone resorption percent, mean (MIA rat model of OA [1]; i.a. weekly) [%]	Bone resorption score (MIA rat model of OA [1]; i.a. weekly)	Cartilage matrix damage score (MIA rat model of OA [1]; i.a. weekly)	Mean of all cartilage loss (MIA rat model of OA [1]; i.a. weekly)	Osteophyte measure (MIA rat model of OA [1]; i.a. weekly) [µm]	Osteophyte score (MIA rat model of OA [1]; i.a. weekly)	Subchondral bone sclerosis (MIA rat model of OA [1]; i.a. weekly)	Total joint score w/o matrix (MIA rat model of OA [1]; i.a. weekly)	Total joint score with matrix (MIA rat model of OA [1]; i.a. weekly)	dRS, hours after dosing with significant difference (MIA rat model of OA [2]; day 21)	other results
CC(C)(C)CC(=O)OCC(=O)[C@@]12OC(C)(C)O[C@@H]1C[C@H]1[C@@H]3CCC4=CC(=O)C=C[C@]4(C)[C@@]3(F)[C@@H](O)C[C@@]12C [Triamcinolone hexacetonide]	2.03 ± 0.52	11.30 ± 1.21	35	34	35	32	34	2.3	3.3 ± 0.9	61.1	453.3	2.0	0.7	5.0	8.3 ± 2.6		Cartilage matrix damage score (MIA rat model of OA [1]; i.a. weekly, listed as TH): 3.3; Total joint score with matrix (MIA rat model of OA [1]; i.a. weekly, listed as Trimacinolone Hexacetonide): 8.3
COc1cc(/C=C/C(=O)CC(=O)/C=C/c2ccc(O)c(OC)c2)ccc1O [Curcumin, Diferuloylmethane]	1.63 ± 0.61	9.57 ± 0.91														Pretrt^d	dRS, hours after dosing with significant difference (MIA rat model of OA [2]; day 7): 1 h; % decrease, tibial score zone 2 (MMT/MCLT rat model of OA; vs saline group, i.a., tacrolimus 15 ng, curcumin 30 μg): 40%
Clc1cccc(Cl)c1N=C1NCCN1 [Clonidine]	0.67 ± 0.23	9.13 ± 0.54	51	61	47	65	56	3.0	3.0 and 3.0 ± 1.1	47.8	560.0	2.7	0.0	5.7	8.7 and 8.7 ± 3.3	3 h	Femoral cartilage degeneration score (MMT/MCLT rat model of OA; [3]): 0.77 ± 0.28; Total joint score (MMT/MCLT rat model of OA; [3]): 11.03 ± 0.61; Bone resorption percent, LFC (MIA rat model of OA [1]; clonidine 100 μg/kg s.c.): 72%; Bone resorption percent, LTP (MIA rat model of OA [1]; clonidine 100 μg/kg s.c.): 87%; Bone resorption percent, MFC (MIA rat model of OA [1]; clonidine 100 μg/kg s.c.): 67%; Bone resorption percent, MTP (MIA rat model of OA [1]; clonidine 100 μg/kg s.c.): 83%; Bone resorption percent, mean (MIA rat model of OA [1]; clonidine 100 μg/kg s.c.): 77%; Bone resorption score (MIA rat model of OA [1]; clonidine 100 μg/kg s.c.): 4.3; Cartilage matrix damage score (MIA rat model of OA [1]; clonidine 100 μg/kg s.c.): 3.7 and 3.7 ± 0.9; Mean of all cartilage loss (MIA rat model of OA [1]; clonidine 100 μg/kg s.c.): 64.9; Osteophyte measure (MIA rat model of OA [1]; clonidine 100 μg/kg s.c.): 560.0 µm; Osteophyte score (MIA rat model of OA [1]; clonidine 100 μg/kg s.c.): 2.7; Subchondral bone sclerosis (MIA rat model of OA [1]; clonidine 100 μg/kg s.c.): 0.0; Total joint score w/o matrix (MIA rat model of OA [1]; clonidine 100 μg/kg s.c.): 7.0; Total joint score with matrix (MIA rat model of OA [1]; clonidine 100 μg/kg s.c.): 10.7 and 10.7 ± 2.8
COc1ccc(C=CC(=O)Nc2ccccc2C(=O)O)cc1OC [Tranilast, N-(3′,4′-dimethoxycinnamoyl)anthranilic acid]			100	100	100	97	99	5.0	5.0 and 5.0 ± 0.0	89.7	893.3	4.3	0.0	9.3	14.3 and 14.3 ± 0.3		
